Measured values as given in US20240217966A1, “PHARMACEUTICAL COMPOSITION CONTAINING GLP-1 RECEPTOR AGONIST HAVING FUSED RING” (Shionogi & Co., Ltd., priority 2021, published 2024).

Key:
[1] = target: T1, Human GLP-1 receptor (Homo sapiens, UniProt P43220); experiment: Measurement of GLP-1 receptor agonist activity (cAMP assay); format: cell-based; conditions: for Emax: CHO-K1, hGLP-1R/CHO-K1 cells, cAMP, 100% = human GLP-1 (7-36) at 2 nM, 0% = DMSO only, read-out: Emax(%); for EC50: hGLP-1R/CHO-K1 cells, cAMP increase, 37° C. 1 hour
T1 construct: expressed in transfected cells
Procedure, shortened: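 hGLP-1R/CHO-K1 cells in HBSS with 0.1% BSA, 20 mM HEPES, 0.1 mM IBMX and 0.2 mM RO20-1724 exposed to compound plus forskolin (400 μM stock) for 1 h at 37 °C. Intracellular cAMP read by HTRF (cAMP-d2/anti-cAMP cryptate, 1 h at room temperature).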

[2] = Metabolism stability test (Test Example 2-2); format: in vitro ADME; conditions: pooled human liver microsomes 0.5 mg protein/mL, 37° C., 30 minutes, 1 mmol/L NADPH (oxidative reaction), compound concentration 0.5 μmol/L
Experimental: Test Example 2-2: Metabolism Stability Test
Using commercially available pooled human liver microsomes, a compound of the present invention is reacted for a constant time, and a remaining rate is calculated by comparing a reacted sample and an unreacted sample, thereby, a degree of metabolism in liver is assessed.
A reaction is performed (oxidative reaction) at 37° C. for 0 minute or 30 minutes in the presence of 1 mmol/L NADPH in 0.2 mL of a buffer (50 mmol/L Tris-HCl pH 7.4, 150 mmol/L potassium chloride, 10 mmol/L magnesium chloride) containing 0.5 mg protein/mL of human liver microsomes. After the reaction, 70 μL of the reaction solution is added to 140 μL of a methanol/acetonitrile=1/1 (v/v), mixed and centrifuged at 3000 rpm for 15 minutes. The compound of the present invention in the centrifuged supernatant is quantified by LC/MS/MS or solid-phase extraction (SPE)/MS. The ratio of the amount of the compound after the reaction, with respect to the amount of the compound at 0 minutes of the reaction defined as 100%, is shown as the residual rate. Hydrolysis reaction is performed in the absence of NADPH, and glucuronidation reaction is performed in the presence of 5 mmol/L UDP-glucuronic acid instead of NADPH. Then, the same operation is carried out. The dilution concentration or the dilution solvent are changed as necessary.
The compounds of the present invention were tested essentially as described above.

T1 sequence (P43220 24-463): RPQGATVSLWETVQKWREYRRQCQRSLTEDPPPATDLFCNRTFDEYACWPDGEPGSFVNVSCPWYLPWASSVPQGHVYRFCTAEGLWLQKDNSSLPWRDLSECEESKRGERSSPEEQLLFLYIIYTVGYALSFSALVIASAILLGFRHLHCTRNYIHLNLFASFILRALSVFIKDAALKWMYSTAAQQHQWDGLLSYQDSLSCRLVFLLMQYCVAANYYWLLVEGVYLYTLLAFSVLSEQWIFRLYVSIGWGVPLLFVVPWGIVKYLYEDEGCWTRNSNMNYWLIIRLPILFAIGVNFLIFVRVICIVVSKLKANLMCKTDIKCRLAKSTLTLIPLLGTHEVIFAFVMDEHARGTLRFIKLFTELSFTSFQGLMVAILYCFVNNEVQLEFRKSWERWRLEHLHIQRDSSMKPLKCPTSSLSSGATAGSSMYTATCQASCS

| Structure (SMILES) | Emax [1] [%] | EC50 [1] [nM] | residual rate of the compound [2] [%] |
| --- | --- | --- | --- |
| O=C(O)c1cc(F)c2nc(CN3CCc4cc(C(F)(F)F)c(OCc5ccc(Cl)cc5F)cc4C3)n(C[C@@H]3CCO3)c2c1 [Compound I-033] | 109 | 1.49 | 87.1 |
| C[C@H]1c2cc(OCc3ccc(Cl)cc3F)c(C(F)(F)F)cc2CCN1Cc1nc2ccc(C(=O)O)cc2n1C[C@@H]1CCO1 [Compound I-035] | 129 | 0.298 | 87.1 |
| O=C(O)c1ccc2nc(Cc3ccc4nc(C(F)(F)F)c(OCc5ccc(Cl)cc5F)nc4c3F)n(C[C@@H]3CCO3)c2c1 [Compound I-109] | 114 | 0.472 | 99.6 |
| C[C@H]1c2cc(OCc3ccc(Cl)cc3F)c(C(F)(F)F)cc2CCN1Cc1nc2ccc(C(=O)O)c(F)c2n1C[C@@H]1CCO1 [Compound I-117] | 117 | 0.327 | 96.9 |
| C[C@H]1c2cc(OCc3ccc(F)cc3)c(C(F)(F)F)cc2CCN1Cc1nc2ccc(C(=O)O)cc2n1C[C@@H]1CCO1 [Compound I-123] | 97.7 | 3.76 | > 99.9 |
| C[C@H]1c2nc(OCc3ccc(Cl)cc3F)c(C(F)(F)F)cc2CCN1Cc1nc2ccc(C(=O)O)cc2n1C[C@@H]1CCO1 [Compound I-145] | 108 | 0.0938 | 94.0 |
| C[C@H]1c2nc(OCc3ccc(Cl)cc3F)c(C(F)(F)F)cc2CCN1Cc1nc2ccc(C(=O)O)c(F)c2n1C[C@@H]1CCO1 [Compound I-160] | 118 | 0.0524 | 92.4 |
